# System: Trypanosoma cruzi (Tulahuan-LACZ amstigotes in PEM)
# Test: In vitro drug activity assay, protozoon A (amastigotes in murine peritoneal macrophages, CPRG readout)
# Format: cell-based
# Conditions: infected macrophages exposed for 3 days
# Description: Murine (CD1) peritoneal macrophages were harvested 24 hours after starch induction and dispensed into 96-well plates at a concentration of 4 x 10^5 mL. After 24 hours, the cells were infected with Trypanosoma cruzi Tulahuan LAC-Z amastigotes (grown and cultured according to Buckner et al., Infection and Immunity 1999, 67(1): 403-409). 24 hours later, the infected cells were exposed to the test compounds (compounds of the invention as well as known prior art compounds) for 3 days and 50 µL of 500 µM CPRG-1% Nonidet P-40 was added to each well. The plates were read after 2 to 5 hours at 570 nm (Buckner et al., Antimicrobial Agents and Chemotherapy 1996, 40(11): 2592-2597). ED50 values were calculated with Msxlfit (IDBS).
# The following protozoa were assessed: • A) Trypanosoma cruzi (Tulahuan-LACZ amstigotes in PEM, Lorente SO et al., Antimicrobial agents and chemotherapy 2004, 48(8): 2937-2950; Buckner et al., Infection and Immunity 1999, 67(1): 403-409; Buckner et al., Antimicrobial Agents and Chemotherapy 1996, 40(11): 2592-2597) • B) Trypanosoma brucei rhodesiense (strain STIB900, Lorente SO et al., Antimicrobial agents and chemotherapy 2004, 48(8): 2937-2950; Habtemariam S, BMC Pharmacology 2003, 3:6) • C) Plasmodium falciparum (strain K1, Korsinczky M et al., Antimicrobial agents and chemotherapy 2000, 44(8): 2100-2108; Thaitong S and Beale GH, Trans. R. Soc. Trop. Med. Hyg. 1981, 75: 271-273; Trager W and Jensen JB, Science 1976, 193: 673-675) • D) Plasmodium falciparum (strain 3D7, Mu et al., PLoS Biology 2005, 3(10): e335)
smiles,measurement,value
"CCCCCCCCCCCCCCCCOP(=O)([O-])OCC[N+]1(C)CCCCC1 [Compound 2, Phosphoric acid 2-(1-methyl-piperidin-1-yl)-ethyl ester hexadecyl ester]",ED50 (µg/mL),"0,50 µg/mL"

# Reference: patent publication EP1800684A1, “Novel alkyl phospholipid derivatives and uses thereof” (Zentaris GmbH, priority 2005, dated 2007)
